Assay results taken from PubChem BioAssay (NCI).
Where “and” joins values, the source holds several entries; their conditions need not be identical. Identical values can stand only once.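 Method: 48-hour compound exposure of cells in 96-well plates, five concentrations, linear interpolation of endpoints. GI50 = concentration required for 50% inhibition of growth. TGI: total growth inhibition.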

Assays:
Assay in all cases: NCI tumour cell line growth inhibition, 48 h
786-0 renal = tested on: 786-0 renal
A549 NSCLC = tested on: A549 NSCLC
BT-549 breast = tested on: BT-549 breast
CAKI-1 renal = tested on: CAKI-1 renal
HOP-62 NSCLC = tested on: HOP-62 NSCLC
IGROV1 ovarian = tested on: IGROV1 ovarian
MOLT-4 leukemia = tested on: MOLT-4 leukemia
OVCAR-8 ovarian = tested on: OVCAR-8 ovarian
SK-OV-3 ovarian = tested on: SK-OV-3 ovarian
UACC-257 melanoma = tested on: UACC-257 melanoma

Compound	GI50 (786-0 renal)	TGI (786-0 renal)	GI50 (A549 NSCLC)	TGI (A549 NSCLC)	GI50 (BT-549 breast)	TGI (BT-549 breast)	GI50 (CAKI-1 renal)	TGI (CAKI-1 renal)	GI50 (HOP-62 NSCLC)	TGI (HOP-62 NSCLC)	GI50 (IGROV1 ovarian)	TGI (IGROV1 ovarian)	GI50 (MOLT-4 leukemia)	TGI (MOLT-4 leukemia)	GI50 (OVCAR-8 ovarian)	TGI (OVCAR-8 ovarian)	GI50 (SK-OV-3 ovarian)	TGI (SK-OV-3 ovarian)	GI50 (UACC-257 melanoma)	TGI (UACC-257 melanoma)
CC(=O)C1=C(O)C=C2Oc3c(C(=O)/C=C/c4cc(Cl)cc(Cl)c4)c(O)c(C)c(O)c3[C@]2(C)C1=O	0.534 µM	2.32 µM	0.566 µM	2.98 µM	0.395 µM	0.961 µM	0.502 µM	4.19 µM	0.48 µM	1.67 µM	0.673 µM	4.69 µM	0.409 µM	1.33 µM	0.496 µM	2.26 µM	0.449 µM	1.33 µM	0.535 µM	2.5 µM
CCOc1ccn(-c2ccc(F)cc2)c(=O)c1C(=O)Nc1ccc(Oc2ccnc(N)c2Cl)c(F)c1	19 µM	> 100 µM	9.12 µM	86.2 µM	13.8 µM	59.2 µM	7.57 µM	56.4 µM	13.2 µM	> 100 µM	17.3 µM	> 100 µM	5.78 µM	59 µM	15.2 µM	> 100 µM	11.7 µM	41.6 µM	5.99 µM	43.4 µM
O=C1C=CC(=O)c2c(O)c3c(c(O)c21)C[C@H](O)[C@H](O)[C@@H]3O		4.06 µM		9.39 µM		2.81 µM		4.38 µM		13.2 µM		6.92 µM		> 23.6 µM		6.59 µM		33 µM		2.64 µM
O=c1c(Cl)c(Cl)cnn1CCCl		25.3 µM		35.3 µM		13.9 µM		6.53 µM		34.5 µM		3.85 µM		7.46 µM		10.9 µM		21.7 µM		6.58 µM
Cc1cc(-c2cc(O)ccc2Cl)cc2nnc(Nc3ccc(OCCN4CCCC4)cc3)nc12	0.186 µM	0.343 µM	1.36 µM	3.48 µM	1.45 µM	3.16 µM	1.54 µM	2.97 µM	1.88 µM	3.79 µM	1.63 µM	3.57 µM	0.251 µM	0.634 µM	0.705 µM	1.56 µM	1.3 µM	2.8 µM	1.96 µM	3.91 µM
C=CCC(N[C@H](CO)c1ccccc1)c1cn(Cc2ccccc2Cl)c(=O)n(Cc2ccccc2Cl)c1=O (stereo partly drawn)	12.7 µM	64.1 µM	15.3 µM	> 100 µM		7.01 µM	4.46 µM	32.2 µM	12 µM	29.9 µM	13.5 µM	66.3 µM			15.2 µM	> 100 µM	63.8 µM	> 100 µM	23.3 µM	53.4 µM
CC1(C)CCCC(C)(C2CCC3(C)C2C(O)CC2C4(C)CCC(O)C(C)(C)C4CCC23C)O1 (stereo not drawn)		> 100 µM		> 100 µM		> 100 µM		> 100 µM				> 100 µM		> 100 µM		> 100 µM		> 100 µM		> 100 µM
Clc1ccccc1-c1nnc2c(Cc3ccccc3)nc3ccccc3n12	12.5 µM	98.3 µM	8.78 µM	> 100 µM	> 25.9 µM	> 100 µM	9.59 µM	> 100 µM	9.92 µM	> 100 µM	44 µM	> 100 µM	9.04 µM	> 100 µM	7.21 µM	> 100 µM	22.5 µM	> 100 µM	33.3 µM	> 100 µM
O=C(O)C1[O][Sb][O]C(C(=O)O)C1O (stereo not drawn)	> 100 µM	> 100 µM	> 100 µM	> 100 µM	> 100 µM	> 100 µM	> 100 µM	> 100 µM	> 100 µM	> 100 µM	> 100 µM	> 100 µM	> 100 µM	> 100 µM	> 100 µM	> 100 µM				
CC(C)CCCCCCCCCCCCC(=O)NCC(=O)NC1C(O)C(O)C(Nc2ncnc3nc[nH]c23)OC1C(O)CO (stereo not drawn)		0.526 µM		0.00787 µM and 0.0537 µM and 0.0327 µM	< 1e-05 µM		< 1e-05 µM	0.0011 µM and 0.000619 µM	< 1e-05 µM		0.005 µM	0.00755 µM and 0.0084 µM		0.153 µM and 0.43 µM			0.005 µM	0.00344 µM and 0.0224 µM		
CC1NC(=O)C2=C1C(=O)NC(=O)C2 (stereo not drawn)	> 100 µM	> 100 µM	> 100 µM	> 100 µM	> 100 µM	> 100 µM	> 100 µM	> 100 µM	> 100 µM	> 100 µM	> 100 µM	> 100 µM			> 100 µM	> 100 µM			> 100 µM	> 100 µM
COc1ccc([C@@]23Oc4cc(OC)cc(OC)c4[C@]2(O)[C@H](O)[C@H](C(N)=O)[C@H]3c2ccccc2)cc1	0.018 µM	0.291 µM				0.0847 µM and < 0.0226 µM		0.0838 µM		0.216 µM and 0.0916 µM		0.0641 µM and < 0.0206 µM		> 100 µM	< 0.0122 µM					0.206 µM and < 0.0304 µM
COc1cccc(Nc2nc3ccccc3c3occc23)c1	10.7 µM	23.7 µM	6.01 µM	22.4 µM	10.4 µM	23 µM	4.19 µM	15.6 µM	15 µM	39 µM	4.95 µM	25.9 µM			15.8 µM	42.7 µM	8.48 µM	22.7 µM	13.2 µM	26.8 µM
O=C1c2ccccc2-c2c1c1ccccc1c(=O)n2CCCNCCn1c2c(c3ccccc3c1=O)C(=O)c1ccccc1-2	1.98 µM	9.64 µM	13.5 µM	26.3 µM	10.8 µM	28.6 µM	14.3 µM	28.7 µM	9.69 µM	25.3 µM	2.63 µM	32.2 µM			2.73 µM	16.6 µM	19.2 µM	> 100 µM	17.9 µM	35 µM
O=C(c1ccc(Cl)cc1)C(O)c1ccc(Cl)cc1 (stereo not drawn)		> 100 µM		> 100 µM		> 100 µM		> 100 µM		> 100 µM		> 100 µM		75.6 µM		> 100 µM				> 100 µM
